Read-outs that look alike come from different tables or passages of the source. Each block holds one compound with its values, some of them ahead of it.
Legend:
Alopecurus [1] = assay: Post-emergence test, Alopecurus; assay type: in vivo; details: post-emergence/greenhouse; 250 g of ai/ha; after three weeks
Description: (§1) [table] To produce a suitable preparation of active compound, 1 part by weight of active compound is mixed with the stated amount of solvent, the stated amount of emulsifier is added and the concentrate is diluted with water to the desired concentration. Test plants of a height of 5-15 cm are sprayed with the preparation of active compound such that the particular amounts of active compound desired are applied per unit area. The concentration of the spray liquor is chosen such that the particular amounts of active compound desired are applied in 1000 l of water/ha. After three weeks, the degree of damage to the plants is rated in % damage in comparison to the development of the untreated control. The figures denote: • 0%=no effect (=like untreated control) • 100%=total destruction

Setaria [2] = assay: Pre-emergence test, Setaria; assay type: in vivo; details: pre-emergence/greenhouse; 250 g of ai/ha; after three weeks
Description: (§2) [table] To produce a suitable preparation of active compound, 1 part by weight of active compound is mixed with the stated amount of solvent, the stated amount of emulsifier is added and the concentrate is diluted with water to the desired concentration. Seeds of the test plants are sown in normal soil. After about 24 hours, the soil is sprayed with the preparation of active compound such that the particular amounts of active compound desired are applied per unit area. The concentration of the spray liquor is chosen such that the particular amounts of active compound desired are applied in 1000 l of water/ha. After three weeks, the degree of damage to the plants is rated in % damage in comparison to the development of the untreated control. The figures denote: • 0%=no effect (like untreated control) • 100%=total destruction

Alopecurus [3] = assay: Pre-emergence test, Alopecurus; assay type: in vivo; details: pre-emergence/greenhouse; 250 g of ai/ha; after three weeks
Description: as §2

Echinochloa [4] = assay: Pre-emergence test, Echinochloa; assay type: in vivo; details: pre-emergence/greenhouse; 250 g of ai/ha; after three weeks
Description: as §2

Sinapis [5] = assay: Post-emergence test, Sinapis; assay type: in vivo; details: post-emergence/greenhouse; 250 g of ai/ha; after three weeks
Description: as §1

Avena fatua [6] = assay: Post-emergence test, Avena fatua; assay type: in vivo; details: post-emergence/greenhouse; 250 g of ai/ha; after three weeks
Description: as §1

Amaranthus [7] = assay: Pre-emergence test, Amaranthus; assay type: in vivo; details: pre-emergence/greenhouse; 250 g of ai/ha; after three weeks
Description: as §2

Avena fatua [8] = assay: Pre-emergence test, Avena fatua; assay type: in vivo; details: pre-emergence/greenhouse; 250 g of ai/ha; after three weeks
Description: as §2

Setaria [9] = assay: Post-emergence test, Setaria; assay type: in vivo; details: post-emergence/greenhouse; 250 g of ai/ha; after three weeks
Description: as §1

Echinochloa [10] = assay: Post-emergence test, Echinochloa; assay type: in vivo; details: post-emergence/greenhouse; 250 g of ai/ha; after three weeks
Description: as §1

Amaranthus [11] = assay: Post-emergence test, Amaranthus; assay type: in vivo; details: post-emergence/greenhouse; 250 g of ai/ha; after three weeks
Description: as §1

Sinapis [12] = assay: Pre-emergence test, Sinapis; assay type: in vivo; details: pre-emergence/greenhouse; 250 g of ai/ha; after three weeks
Description: as §2

Phaedon cochleariae = assay: Phaedon larvae test; assay type: in vivo; details: 500 ppm active compound, cabbage leaves dipped
Description: (§3) [table] To produce a suitable preparation of active compound, 1 part by weight of active compound is mixed with the stated amounts of solvent and emulsifier, and the concentrate is diluted with emulsifier-containing water to the desired concentration. Cabbage leaves (Brassica oleracea) are treated by being dipped into the preparation of active compound of the desired concentration and are populated with larvae of the mustard beetle (Phaedon cochleariae) while leaves are still moist. After the desired period of time, the kill in % is determined. 100% means that all beetle larvae have been killed; 0% means that none of the beetle larvae have been killed.

Tetranychus urticae = assay: Tetranychus test (OP-resistant/dip treatment); assay type: in vivo; details: 100 ppm active compound, bean plants dipped, OP-resistant
Description: [table] To produce a suitable preparation of active compound, 1 part by weight of active compound is mixed with the stated amounts of solvent and emulsifier, and the concentrate is diluted with emulsifier-containing water to the desired concentration. Bean plants (Phaseolus vulgaris) which are heavily infested by all stages of the greenhouse […] spider mite (Tetranychus urticae) are dipped into a preparation of active compound of the desired concentration. After the desired period of time, the activity in % is determined. 100% means that all spider mites have been killed; 0% means that none of the spider mites have been killed.

Meloidogyne incognita = assay: Meloidogyne test (gall formation on lettuce roots); assay type: in vivo; details: 20 ppm active compound, nematicidal action by gall formation
Description: [table] To produce a suitable preparation of active compound, 1 part by weight of active compound is mixed with the stated amounts of solvent and emulsifier, and the concentrate is diluted with water to the desired concentration. Vessels are filled with sand, solution of active compound, Meloidogyne incognita egg/larvae suspension and lettuce seeds. The lettuce seeds germinate and the plants develop. On the roots, galls develop. After the desired period of time, the nematicidal action is determined in % by the formation of galls. 100% means that no galls have been found; 0% means that the number of galls on the treated plants corresponds to that of the untreated control.

Myzus persicae = assay: Myzus test (leaf dip, cabbage); assay type: in vivo; details: 500 ppm active compound, cabbage leaves dipped
Description: as §3, with “oleracea) which are heavily infested by peach aphids (Myzus persicae)” for “oleracea)”, “concentration.” for “concentration and are populated with larvae of the mustard beetle (Phaedon cochleariae) while leaves are still moist.”, “aphids” for “beetle larvae”

log P determination = assay type: physicochemical

SMILES: CCOC1CCC2(CC1)NC(=O)C(Cl)(c1c(C)cc(C)cc1C)C2=O (stereo not shown) [Ex. I-1-a-4]
- % damage, Alopecurus (Alopecurus [1]): 95%
- % damage, Setaria (Setaria [2]): 100%
- % damage, Alopecurus (Alopecurus [3]): 100%
- % damage, Echinochloa (Echinochloa [4]): 100%
- % damage, Sinapis (Sinapis [5]): 95%
- % damage, Avena fatua (Avena fatua [6]): 95%
- % damage, Amaranthus (Amaranthus [7]): 100%
- % damage, Avena fatua (Avena fatua [8]): 90%
- % damage, Setaria (Setaria [9]): 100%
- % damage, Echinochloa (Echinochloa [10]): 100%
- % damage, Amaranthus (Amaranthus [11]): 90%
- % damage, Sinapis (Sinapis [12]): 95%

SMILES: COC1CCC2(CC1)NC(=O)C(Cl)(c1cc(C)ccc1Cl)C2=O (stereo not shown) [Ex. I-1-a-1]
- Kill rate in % after 7d (Phaedon cochleariae): 100%

SMILES: Cc1cc(Cl)cc(Br)c1C1(Cl)C(=O)NC2(CCCOC2)C1=O (stereo not shown) [Ex. I-1-b-9]
- Kill rate in % after 7d (Phaedon cochleariae): 100%

SMILES: Cc1cc(Br)cc(C)c1C1(Cl)C(=O)NC2(CCCOC2)C1=O (stereo not shown) [Ex. I-1-b-1]
- Kill rate in % after 7d (Tetranychus urticae): 95%

SMILES: COC1CCC2(CC1)NC(=O)C(Cl)(c1c(Cl)ccc(C)c1Cl)C2=O (stereo not shown) [Ex. I-1-a-33]
- Kill rate in % after 14d (Meloidogyne incognita): 98%

SMILES: COC1CCC2(CC1)NC(=O)C(Cl)(c1ccc(OC(F)(F)F)cc1C)C2=O (stereo not shown) [Ex. I-1-a-22]
- Kill rate in % after 7d (Tetranychus urticae): 100%

SMILES: COC1CCC2(CC1)NC(=O)C(Cl)(c1c(Cl)cc(Cl)cc1Cl)C2=O (stereo not shown) [Ex. I-1-a-42]
- Kill rate in % after 14d (Meloidogyne incognita): 90%
- Kill rate in % after 6d (Myzus persicae): 95%

SMILES: Cc1cc(Cl)ccc1C1(Cl)C(=O)NC2(CCOCC2)C1=O (stereo not shown) [Ex. I-1-c-4]
- Kill rate in % after 6d (Myzus persicae): 95%

- log P (log P determination; isomer mixture, two values): 4.42
- logP (2.3) (log P determination; pH 2.3): 4.42
- logP (log P determination; pH 2.3, isomer mixture, two values, read-out: log P): 4.17
- logP (log P determination; pH 2.3, pH 2.3, read-out: logP (2.3)): 4.17
SMILES: COC1CCC2(CC1)OC(=O)C(c1cc(C)c(C)cc1C)([N+](=O)[O-])C2=O (stereo not shown) [I-2-a-2]

SMILES: COC1CCC2(CC1)NC(=O)C(Cl)(c1c(Cl)cc(C)cc1Cl)C2=O (stereo not shown) [Ex. I-1-a-6]
- % damage, Alopecurus (Alopecurus [1]): 95%
- % damage, Setaria (Setaria [2]): 100%
- % damage, Alopecurus (Alopecurus [3]): 100%
- % damage, Echinochloa (Echinochloa [4]): 95%
- % damage, Sinapis (Sinapis [5]): 80%
- % damage, Avena fatua (Avena fatua [6]): 95%
- % damage, Amaranthus (Amaranthus [7]): 100%
- % damage, Avena fatua (Avena fatua [8]): 95%
- Kill rate in % after 7d (Phaedon cochleariae): 100%
- % damage, Setaria (Setaria [9]): 100%
- % damage, Echinochloa (Echinochloa [10]): 100%
- % damage, Amaranthus (Amaranthus [11]): 90%
- % damage, Sinapis (Sinapis [12]): 90%

— patent publication US8063096B2, “Spirocyclic 3-phenyl-3substituted-4-ketolactams and-lactones” (Bayer Cropscience AG, priority 2001, dated 2011)
